Values belong to the compound of their own block, whether it stands above or below them. Calls of active or inactive are those of the source. No cut-off for these calls is given here.
How the values were obtained:
[1] = molecular target: AMPK alpha2/beta2/gamma1 (Homo sapiens) (UniProt P54646+O43741+P54619); experiment: Activation of human recombinant AMPK A2/B2/G1 assessed as increase in AMPK phosphorylation using FL-peptide as substrate incubated for 120 mins by EZ reader method; type: protein-complex assay; details: filed as activator
AMPK alpha2/beta2/gamma1 (Homo sapiens), sequence (O43741 whole entry, looked up): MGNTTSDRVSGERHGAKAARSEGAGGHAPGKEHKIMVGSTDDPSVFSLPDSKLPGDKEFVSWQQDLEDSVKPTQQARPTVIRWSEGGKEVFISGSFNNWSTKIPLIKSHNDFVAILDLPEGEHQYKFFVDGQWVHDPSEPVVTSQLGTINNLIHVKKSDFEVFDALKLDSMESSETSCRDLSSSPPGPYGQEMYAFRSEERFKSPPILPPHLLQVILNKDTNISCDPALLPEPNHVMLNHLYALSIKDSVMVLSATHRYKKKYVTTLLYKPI
AMPK alpha2/beta2/gamma1 (Homo sapiens), sequence (P54619 whole entry, looked up): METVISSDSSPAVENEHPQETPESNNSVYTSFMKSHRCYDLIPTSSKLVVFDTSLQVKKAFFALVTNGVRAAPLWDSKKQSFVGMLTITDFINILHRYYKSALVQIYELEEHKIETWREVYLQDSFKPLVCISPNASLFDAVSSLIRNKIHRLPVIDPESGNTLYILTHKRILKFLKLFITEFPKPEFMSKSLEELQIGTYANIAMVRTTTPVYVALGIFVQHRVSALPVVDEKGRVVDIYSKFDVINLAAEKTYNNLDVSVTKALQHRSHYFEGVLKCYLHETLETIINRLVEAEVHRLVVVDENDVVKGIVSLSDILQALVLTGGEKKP
AMPK alpha2/beta2/gamma1 (Homo sapiens), sequence (P54646 whole entry, looked up): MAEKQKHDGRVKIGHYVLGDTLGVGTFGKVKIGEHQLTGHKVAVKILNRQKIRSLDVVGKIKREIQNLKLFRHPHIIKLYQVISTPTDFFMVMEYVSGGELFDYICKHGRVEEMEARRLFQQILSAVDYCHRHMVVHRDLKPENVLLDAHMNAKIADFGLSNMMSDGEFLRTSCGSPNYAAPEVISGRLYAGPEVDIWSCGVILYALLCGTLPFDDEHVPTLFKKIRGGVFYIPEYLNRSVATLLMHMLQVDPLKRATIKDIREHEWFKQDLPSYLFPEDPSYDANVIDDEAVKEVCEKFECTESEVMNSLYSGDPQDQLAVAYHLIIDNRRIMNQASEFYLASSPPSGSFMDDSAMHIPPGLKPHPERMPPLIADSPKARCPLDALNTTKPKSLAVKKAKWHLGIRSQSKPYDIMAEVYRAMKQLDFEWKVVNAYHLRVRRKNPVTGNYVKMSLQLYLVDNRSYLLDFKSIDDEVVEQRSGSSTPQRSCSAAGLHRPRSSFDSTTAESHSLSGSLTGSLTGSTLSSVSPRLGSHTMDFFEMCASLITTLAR

[2] = system: L6; experiment: Activation of AMPK alpha2beta2gamma1 in rat L6 cells assessed as increase in AMPK phosphorylation by ELISA assay; type: cell-based; details: filed as activator
[3] = molecular target: T1, Cytochrome P450 1A2 (Homo sapiens, UniProt P05177); experiment: Inhibition of CYP1A2 in human liver microsomes using 7-ethoxyresorufin as substrate; type: ADME, Microsome
T1 sequence (P05177 whole entry): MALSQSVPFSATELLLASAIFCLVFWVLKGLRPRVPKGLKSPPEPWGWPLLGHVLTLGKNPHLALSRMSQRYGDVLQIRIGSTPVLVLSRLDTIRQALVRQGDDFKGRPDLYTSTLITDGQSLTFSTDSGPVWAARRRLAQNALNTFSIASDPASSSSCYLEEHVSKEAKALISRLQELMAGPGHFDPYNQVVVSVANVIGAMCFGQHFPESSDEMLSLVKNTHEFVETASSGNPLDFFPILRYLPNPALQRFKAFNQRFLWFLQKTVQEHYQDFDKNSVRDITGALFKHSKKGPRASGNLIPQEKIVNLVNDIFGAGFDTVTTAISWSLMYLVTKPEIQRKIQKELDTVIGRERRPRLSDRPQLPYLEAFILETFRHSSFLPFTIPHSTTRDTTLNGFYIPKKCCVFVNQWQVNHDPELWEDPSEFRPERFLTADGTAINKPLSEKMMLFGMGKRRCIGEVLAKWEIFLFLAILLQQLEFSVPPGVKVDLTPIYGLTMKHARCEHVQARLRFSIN

[4] = molecular target: Cytochrome P450 2C9 (Homo sapiens, UniProt P11712); experiment: Inhibition of CYP2C9 in human liver microsomes using tolbutamide as substrate; type: ADME, Microsome
Cytochrome P450 2C9, sequence (P11712 whole entry): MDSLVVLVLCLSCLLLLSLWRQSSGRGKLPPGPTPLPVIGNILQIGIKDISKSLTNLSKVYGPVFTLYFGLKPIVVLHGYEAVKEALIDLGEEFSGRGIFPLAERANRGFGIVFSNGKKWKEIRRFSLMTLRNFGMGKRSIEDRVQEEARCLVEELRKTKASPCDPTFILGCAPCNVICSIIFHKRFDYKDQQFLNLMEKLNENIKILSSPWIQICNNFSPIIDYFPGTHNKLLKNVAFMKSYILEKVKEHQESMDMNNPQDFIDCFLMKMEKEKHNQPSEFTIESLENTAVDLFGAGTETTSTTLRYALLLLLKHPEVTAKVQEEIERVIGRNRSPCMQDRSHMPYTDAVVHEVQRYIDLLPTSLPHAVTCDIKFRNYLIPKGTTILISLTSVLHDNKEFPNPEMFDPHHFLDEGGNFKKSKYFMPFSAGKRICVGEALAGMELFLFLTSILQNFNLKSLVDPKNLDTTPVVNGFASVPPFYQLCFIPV

[5] = molecular target: Cytochrome P450 2C19 (Homo sapiens, UniProt P33261); experiment: Inhibition of CYP2C19 in human liver microsomes using mephenytoin as substrate; type: ADME, Microsome
Cytochrome P450 2C19, sequence (P33261 whole entry): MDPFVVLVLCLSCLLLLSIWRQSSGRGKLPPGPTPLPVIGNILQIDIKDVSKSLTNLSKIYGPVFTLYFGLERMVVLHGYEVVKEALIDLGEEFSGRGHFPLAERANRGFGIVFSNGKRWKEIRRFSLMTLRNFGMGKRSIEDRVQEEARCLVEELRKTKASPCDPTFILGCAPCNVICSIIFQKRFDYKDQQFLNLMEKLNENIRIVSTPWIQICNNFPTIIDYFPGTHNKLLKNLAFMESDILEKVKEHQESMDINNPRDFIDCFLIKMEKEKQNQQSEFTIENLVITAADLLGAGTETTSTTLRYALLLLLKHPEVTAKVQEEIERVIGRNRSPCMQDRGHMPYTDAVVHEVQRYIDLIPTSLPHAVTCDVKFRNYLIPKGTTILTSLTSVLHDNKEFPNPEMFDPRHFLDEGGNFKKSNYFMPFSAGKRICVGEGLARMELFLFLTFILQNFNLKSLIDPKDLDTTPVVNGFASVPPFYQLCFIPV

[6] = molecular target: Cytochrome P450 2D6 (Homo sapiens, UniProt P10635); experiment: Inhibition of CYP2D6 in human liver microsomes using dextromethorphan as substrate; type: ADME, Microsome
Cytochrome P450 2D6, sequence (P10635 whole entry): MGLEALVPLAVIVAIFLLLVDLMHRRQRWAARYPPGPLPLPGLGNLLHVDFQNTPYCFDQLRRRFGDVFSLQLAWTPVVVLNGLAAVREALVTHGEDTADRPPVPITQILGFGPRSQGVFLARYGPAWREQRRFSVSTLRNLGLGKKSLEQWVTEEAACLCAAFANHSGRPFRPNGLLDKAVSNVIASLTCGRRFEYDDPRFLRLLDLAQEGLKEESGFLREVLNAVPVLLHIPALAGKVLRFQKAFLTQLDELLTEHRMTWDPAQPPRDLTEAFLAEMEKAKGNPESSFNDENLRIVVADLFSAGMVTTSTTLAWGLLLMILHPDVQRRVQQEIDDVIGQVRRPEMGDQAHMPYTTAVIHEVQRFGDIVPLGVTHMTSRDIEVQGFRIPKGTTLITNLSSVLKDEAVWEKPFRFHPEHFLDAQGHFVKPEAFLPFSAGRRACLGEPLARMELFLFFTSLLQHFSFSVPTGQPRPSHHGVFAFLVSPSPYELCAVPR

[7] = molecular target: Cytochrome P450 3A4 (Homo sapiens, UniProt P08684); experiment: Inhibition of CYP3A4 in human liver microsomes using terfenedine as substrate; type: ADME, Microsome
Cytochrome P450 3A4, sequence (P08684 whole entry): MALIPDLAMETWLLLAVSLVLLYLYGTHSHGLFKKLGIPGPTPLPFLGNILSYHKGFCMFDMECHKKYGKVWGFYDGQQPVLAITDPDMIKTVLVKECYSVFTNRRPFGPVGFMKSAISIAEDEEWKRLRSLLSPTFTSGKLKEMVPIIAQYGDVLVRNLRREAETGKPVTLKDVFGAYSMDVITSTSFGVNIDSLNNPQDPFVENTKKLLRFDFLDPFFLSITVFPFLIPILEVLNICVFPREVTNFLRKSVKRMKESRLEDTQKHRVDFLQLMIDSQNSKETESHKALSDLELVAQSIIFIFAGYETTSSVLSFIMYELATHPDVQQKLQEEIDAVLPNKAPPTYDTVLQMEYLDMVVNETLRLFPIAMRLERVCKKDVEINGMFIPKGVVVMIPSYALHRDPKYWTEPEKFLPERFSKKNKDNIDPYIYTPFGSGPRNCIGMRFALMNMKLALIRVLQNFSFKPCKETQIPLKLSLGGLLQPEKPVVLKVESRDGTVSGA

[8] = Metabolic stability in human liver microsomes assessed as compound remaining incubated for 30 mins; type: ADME, Microsome; details: read-out: Stability
[9] = Metabolic stability in rat liver microsomes assessed as compound remaining incubated for 30 mins; type: ADME, Microsome; details: read-out: Stability
[10] = Protein binding in serum (unknown origin) assessed as free fraction by equilibrium dialysis method; type: ADME, cell-free
[11] = Total clearance in rat at 0.5 mg/kg,iv; type: ADME, organism-based; details: in vivo
[12] = AUC in rat at 1 mg/kg,po; type: ADME, organism-based; set-up: dose 1 mg/kg, route po; details: in vivo
[13] = Cmax in rat at 0.5 mg/kg,iv; type: ADME, organism-based; set-up: dose 0.5 mg/kg, route iv; details: in vivo
[14] = […] in rat liver at 0.5 mg/kg,iv; type: ADME, organism-based
[15] = […] in rat muscle tissue at 0.5 mg/kg,iv; type: ADME, organism-based
[16] = system: Mus musculus; experiment: Antidiabetic activity against diabetic KKAy mouse model assessed as increase in ACC phosphorylation in skeletal muscle at 0.3 to 3 mg/kg,po bid; type: functional, organism-based; details: dose 0.3-3 mg/kg
[17] = system: Mus musculus; experiment: Antidiabetic activity against diabetic KKAy mouse model assessed as acute glucose lowering effect at 0.3 to 3 mg/kg,po bid; type: functional, organism-based; details: dose 0.3-3 mg/kg
[18] = system: Mus musculus; experiment: Antidiabetic activity against diabetic KKAy mouse model assessed as decrease in HbA1c level at 0.3 to 3 mg/kg,po bid observed upto 21 days; type: functional, organism-based; details: dose 0.3-3 mg/kg, time <= 21.0 day
[19] = system: Mus musculus; experiment: Antidiabetic activity against diabetic KKAy mouse model assessed as decrease in plasma glucose level at 0.3 to 3 mg/kg,po bid observed upto 21 days; type: functional, organism-based; details: dose 0.3-3 mg/kg, time <= 21.0 day

SMILES: O[C@@H]1CO[C@H]2[C@@H]1OC[C@H]2Oc1nc2nc(N[C@H]3CCc4cccc(F)c43)c(Cl)cc2[nH]1
EC150 [1]: 0.002 µM
EC150 [2]: 1.06 µM

SMILES: CC(=O)Nc1cc(F)c2c(c1)CC[C@@H]2Nc1nc2nc(O[C@@H]3CO[C@H]4[C@@H]3OC[C@H]4O)[nH]c2cc1Cl
EC150 [1]: 0.0047 µM
EC150 [2]: 0.584 µM

SMILES: Cn1cc(-c2cc(F)c3c(c2)CC[C@@H]3Nc2nc3nc(O[C@@H]4CO[C@H]5[C@@H]4OC[C@H]5O)[nH]c3cc2Cl)cn1
EC150 [1]: 0.0044 µM
EC150 [2]: 0.0847 µM

SMILES: CN(Cc1ccccc1)c1nc2nc(O[C@@H]3CO[C@H]4[C@@H]3OC[C@H]4O)[nH]c2cc1Cl
EC150 [1]: 4.9 µM

SMILES: O[C@@H]1CO[C@H]2[C@@H]1OC[C@H]2Oc1nc2nc(N[C@H]3CCc4ccccc43)c(Cl)cc2[nH]1
EC150 [1]: 0.0031 µM

SMILES: COCCOc1cc(F)c2c(c1)CC[C@@H]2Nc1nc2nc(O[C@@H]3CO[C@H]4[C@@H]3OC[C@H]4O)[nH]c2cc1Cl
EC150 [1]: 0.0016 µM
EC150 [2]: 0.0443 µM
IC50 [3]: > 20 µM
IC50 [4]: > 20 µM
IC50 [5]: > 20 µM
IC50 [6]: > 20 µM
IC50 [7]: > 20 µM
remaining at 0.5 h [8]: 91%
remaining at 0.5 h [9]: 81%
fraction unbound [10]: 0.031
clearance [11]: 9.02 mL/min/kg
AUC [12]: 347 ng·h/mL
Cmax [13]: 65.4 ng/mL
Kp [14]: 5.64
Kp [15]: 1.51
Activity [16]: Dose-Dependent Effect
Activity [17]: Active
Activity [18]: Dose-Dependent Effect
Activity [19]: Active

SMILES: O[C@@H]1CO[C@H]2[C@@H]1OC[C@H]2Oc1nc2nc(NCc3ccccc3)c(Cl)cc2[nH]1
EC150 [1]: 0.16 µM

SMILES: O[C@@H]1CO[C@H]2[C@@H]1OC[C@H]2Oc1nc2nc(NCCCc3ccccc3)c(Cl)cc2[nH]1
EC150 [1]: 15 µM

More lines, now with the values ahead:

EC150 [1]: 9.5 µM
SMILES: OCc1ccccc1CNc1nc2nc(O[C@@H]3CO[C@H]4[C@@H]3OC[C@H]4O)[nH]c2cc1Cl

EC150 [1]: 8.9 µM
SMILES: O[C@@H]1CO[C@H]2[C@@H]1OC[C@H]2Oc1nc2nc(NCc3ccccc3C(F)(F)F)c(Cl)cc2[nH]1

EC150 [1]: 0.048 µM
SMILES: O[C@@H]1CO[C@H]2[C@@H]1OC[C@H]2Oc1nc2nc(NCc3ccccc3F)c(Cl)cc2[nH]1

EC150 [1]: 23 µM
SMILES: CS(=O)(=O)c1ccccc1CNc1nc2nc(O[C@@H]3CO[C@H]4[C@@H]3OC[C@H]4O)[nH]c2cc1Cl

Reference: ChEMBL document CHEMBL5223143, “Identification of novel benzimidazole derivatives as highly potent AMPK activators with anti-diabetic profiles” (Bioorg Med Chem Lett, 2023)
